Earlier results as cited in patent US6376534B1, “Compounds useful in pain management” (Astrazeneca Canada Inc., priority 1998, dated 2002).

Legend:
[1] = biological target: δ receptor (Homo sapiens, UniProt P41143); conditions: background statement
[2] = background statement

Sequence of δ receptor (P41143 whole entry): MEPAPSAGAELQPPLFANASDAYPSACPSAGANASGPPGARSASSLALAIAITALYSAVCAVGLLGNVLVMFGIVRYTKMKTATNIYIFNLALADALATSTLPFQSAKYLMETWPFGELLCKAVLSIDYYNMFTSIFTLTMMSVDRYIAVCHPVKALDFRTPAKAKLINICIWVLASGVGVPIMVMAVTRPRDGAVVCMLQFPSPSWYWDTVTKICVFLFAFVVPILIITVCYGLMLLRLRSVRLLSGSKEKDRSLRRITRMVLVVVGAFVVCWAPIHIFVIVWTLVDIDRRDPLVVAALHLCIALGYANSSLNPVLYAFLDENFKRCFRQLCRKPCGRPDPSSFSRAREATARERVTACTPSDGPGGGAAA

Oc1ccc2c3c1O[C@H]1c4[nH]c5ccccc5c4C[C@@]4(O)[C@@H](C2)N(CC2CC2)CC[C@]314 [naltrindole]
selectivity for the δ receptor vs. μ receptor binding [1]: < 10 fold | analgesic activity [2]: no analgesic activity
